Experimental data as given in patent US5070210A, “Novel ketenimines as intermediates for insecticides” (ICI Americas Inc., priority 1990, dated 1991).

Experiments:
Assay type in all cases: in vivo
[1] = system: Cabbage Looper [Trichoplusia ni (Hubner)]; assay: Cabbage looper insecticidal test; conditions: second-instar larvae, percent in solution; 3-5 days
Method: (§1) The compounds in Tables 1 and 2 above were tested for insecticidal activity using the following testing procedures. LC50 values, based on the results of these tests and calculated according to dosage-mortality curves, are expressed in Table 3.
Cabbage Looper [Trichoplusia ni (Hubner)]:
Test compounds were diluted in a 50-50 acetone-water solution. Cotyledons of hyzini squash (Calabacita abobrinha), approximately 1×1.5 inches, were immersed in the test solutions for 2-3 seconds and placed on a wire screen to dry. The dried leaves were placed in petri dishes containing a moistened piece of filter paper and infested with 5 second-instar cabbage looper larvae. The dishes were placed in a high humidity chamber. Mortality of the larvae was recorded 3-5 days later. Test concentrations ranged from 0.1% downward. The LC-50 value is expressed below in Table 3 under the heading "CL" in terms of percent of the test compound in solution.

[2] = system: Tobacco Budworm [Heliothis virescens (Fabricius)] eggs; assay: Tobacco budworm egg test; conditions: 2-day old eggs, percent in solution
Method: as §1
Tobacco Budworm [Heliothis virescens (Fabricius)]:
(b). Eggs: Paper towel patches of 2-day old eggs of the tobacco budworm were dipped in acetone solutions of the test compound and placed in petri dishes containing a portion of larval rearing medium. Treated eggs were maintained at 78° F. and mortality was recorded after all control eggs had hatched and the young larvae were feeding on the media. Test concentrations ranged from 0.1% downward. The LC-50 value is expressed below in Table 3 under the heading "TBW-E" in terms of percent of the test compound in the solution.

[3] = system: Housefly [Musca domestica]; assay: Housefly insecticidal test; conditions: μg per 25 female flies; mortality after 48 hours
Method: as §1
Housefly [Musca domestica]:
Test compounds were diluted in acetone and aliquots pipetted onto the bottom of aluminum dishes. To ensure even spreading of the chemical on the bottom of the dishes, 1 ml of acetone containing 0.01% peanut oil was also added to each dish. After all solvents had evaporated, the dishes were placed in circular cardboard cages containing 25 female houseflies, 1-2 days old. The cages were covered on the bottom with cellophane and on the top with tulle netting, and each contained a sugar-water saturated cotton plug for maintenance of the flies. Mortality was recorded after 48 hours. Test levels ranged from 100 μg/25 female houseflies downward. The LC-50 value is expressed below in Table 3 under the heading "HF", in terms of μg of the test compound per 25 female flies.

Structure (SMILES) | LC50, CL [1] [%] | LC50, TBW, E (TBW-E) [2] [%] | LC50, HF [3] [µg]
CC(C)C(=Nc1ccc(Cl)c(C(F)(F)F)c1)OCc1cccc(Oc2cccc(F)c2)c1 [Compound 195] | 0.002 | > 0.1 | > 100
CC(C)C(=Nc1ccc(F)cc1)OCc1cccc(Oc2ccc(F)cc2)c1 [Compound 197] | 0.0004 | 0.05 | > 100
CC(C)C(=Nc1cccc(F)c1)OCc1cccc(Oc2ccc(F)cc2)c1 [Compound 200] | 0.00075 | 0.1 | 7.5
COc1cccc(N=C(OCc2cccc(Oc3ccc(F)cc3)c2)C(C)C)c1 [Compound 201] | 0.004 | > 0.1 | 15
CC(C)C(=Nc1ccc(F)cc1)OCc1cccc(Oc2cccc(Cl)c2)c1 [Compound 205] | 0.004 | > 0.1 | 50
CC(C)C(=Nc1ccc(F)cc1)OCc1cccc(Oc2ccc(F)cc2F)c1 [Compound 206] | 0.0017 | > 0.1 | 50
CC(C)C(=Nc1ccc(Cl)c(Cl)c1)OCc1cccc(Oc2cccc(Cl)c2)c1 [Compound 207] | 0.008 | > 0.1 | > 100
CC(C)C(=Nc1ccc(C#N)cc1)OCc1cccc(Oc2cccc(Cl)c2)c1 [Compound 208] | 0.0035 | > 0.1 | 27
CCC(C)C(=Nc1ccc(Cl)c(Cl)c1)OCc1cccc(Oc2ccc(F)cc2)c1 (stereo not drawn) [Compound 211] | 0.0017 | > 0.1 | 61
CC(C)C(=Nc1ccc(F)c(F)c1)OCc1cccc(Oc2ccc(C#N)cc2)c1 [Compound 212] | 0.0005 | 0.045 | 20
CC(C)C(=Nc1ccc(Cl)c(Cl)c1)OCc1cccc(Oc2ccc(F)cc2F)c1 [Compound 213] | 0.00075 | > 0.1 | > 100
CC(C)C(=Nc1ccc(F)c(F)c1)OCc1cccc(Oc2ccc(F)cc2F)c1 [Compound 214] | 0.0003 | 0.04 | 19
CC(C)C(=Nc1ccc(F)c(Cl)c1)OCc1cccc(Oc2cc(F)cc(F)c2)c1 [Compound 215] | 0.00075 | > 0.1 | 75
CC(C)C(=Nc1ccc(Cl)c(Cl)c1)OCc1cccc(Oc2ccc(F)c(F)c2)c1 [Compound 218] | 0.0003 | 0.025 | 25
COc1ccc(Oc2cccc(COC(=Nc3ccc(F)cc3)C(C)C)c2)cc1 [Compound 220] | 0.007 | > 0.1 | 85
COc1ccc(Oc2cccc(COC(=Nc3ccc(F)c(Cl)c3)C(C)C)c2)cc1 [Compound 221] | 0.0027 | > 0.1 | 62
CC(C)C(=Nc1ccc(C#N)c(F)c1)OCc1cccc(Oc2ccc(F)cc2)c1 [Compound 222] | 0.0015 | > 0.1 | 32
COc1ccc(Oc2cccc(COC(=Nc3ccc(Cl)c(Cl)c3)C(C)C)c2)cc1 [Compound 223] | 0.008 | > 0.1 | 43
CC(C)(Cl)C(=Nc1ccc(F)c(Cl)c1)OCc1cccc(Oc2ccc(F)cc2)c1 [Compound 224] | 0.001 | > 0.1 | > 100

Structure (SMILES) | LC50, CL [1] [%] | LC50, TBW, E (TBW-E) [2] [%] | LC50, HF [3] [µg]
CC(C)C(=Nc1ccc(C#N)cc1)OCc1cccc(Oc2ccc(F)cc2)c1 [Compound 227] | 0.0015 | 0.1 | 10
CC(C)C(=Nc1cccc(Br)c1)OCc1cccc(Oc2ccc(F)cc2)c1 [Compound 229] | 0.0005 | > 0.1 | 20
Cc1ccc(Oc2cccc(COC(=Nc3ccc(F)cc3)C(C)C)c2)cc1 [Compound 231] | 0.003 | > 0.1 | > 100
CC(C)C(=Nc1c(F)c(F)c(F)c(F)c1F)OCc1cccc(Oc2ccc(F)cc2F)c1 [Compound 232] | 0.004 | > 0.1 | > 100
CC(C)C(=Nc1ccc(C(C)(C)C)cc1)OCc1cccc(Oc2ccc(F)cc2)c1 [Compound 235] | 0.004 | > 0.1 | > 100
Cc1cc(N=C(OCc2cccc(Oc3ccc(F)cc3)c2)C(C)C)ccc1F [Compound 236] | 0.0018 | 0.06 | 7
CC(C)C(=Nc1ccc(Cl)cc1)OCc1cccc(Oc2ccc(Br)cc2)c1 [Compound 237] | 0.0006 | 0.075 | 50
CC(C)C(=Nc1ccc2c(c1)OC(C)(C)O2)OCc1cccc(Oc2ccc(Cl)cc2)c1 [Compound 241] | 0.0004 | > 0.1 | > 100
CC(C)C(=Nc1ccc2c(c1)CCO2)OCc1cccc(Oc2ccccc2)c1 [Compound 243] | 0.005 | > 0.1 | 9
CC(C)C(=Nc1ccc2c(c1)OCO2)OCc1cccc(Oc2ccc(C(F)(F)F)cc2)c1 [Compound 246] | 0.004 | > 0.1 | 60
CC(C)C(=Nc1ccc(F)c(Cl)c1)OCc1cccc(Oc2ccc(C(F)(F)F)cc2)c1 [Compound 247] | 0.009 | > 0.1 | > 100
COc1cc(N=C(OCc2cccc(Oc3ccccc3)c2)C(C)C)cc(OC)c1OC [Compound 248] | 0.02 | > 0.1 | 40
Cc1cccc(N=C(OCc2cccc(Oc3ccccc3)c2)C(C)C)c1C [Compound 249] | 0.0025 | 0.035 | 36
Cc1ccc(C)c(N=C(OCc2cccc(Oc3ccccc3)c2)C(C)C)c1 [Compound 250] | 0.004 | 0.038 | 38
CC(C)C(=Nc1ccc(Br)c(Br)c1)OCc1cccc(Oc2ccc(F)cc2)c1 [Compound 251] | 0.0005 | 0.06 | 25
CC(C)C(=Nc1ccc(Br)c(Br)c1)OCc1cccc(Oc2ccccc2)c1 [Compound 252] | 0.0035 | 0.04 | 34
CC(C)C(=Nc1cccc(Cl)c1)OCc1cccc(Oc2ccc(Br)cc2)c1 [Compound 260] | 0.00075 | > 0.1 | 22
CCC(C)C(=Nc1ccc(F)c(Cl)c1)OCc1ccc(F)c(Oc2ccccc2)c1 (stereo not drawn) [Compound 261] | 0.001 | 0.05 | 24
